Results taken from ChEMBL document CHEMBL3638409, “Cycloalkane carboxylic acid derivatives as CXCR3 receptor antagonists” (2015).

What follows are compounds tested against T1, C-X-C chemokine receptor type 3 (Homo sapiens, UniProt P49682) (assay: Competition Radioligand Binding Assay: Competition radioligand binding assays were performed to determine the in vitro potency of the newly synthesized, unlabeled test compounds to displace the specific binding of the radiolabelled endogenous chemokine, 125I-CXCL10, from the human CXCR3-A receptor. IC50 values were determined for the test compounds and used to explore the structure-activity relationships (SAR).).
T1 sequence (P49682 whole entry): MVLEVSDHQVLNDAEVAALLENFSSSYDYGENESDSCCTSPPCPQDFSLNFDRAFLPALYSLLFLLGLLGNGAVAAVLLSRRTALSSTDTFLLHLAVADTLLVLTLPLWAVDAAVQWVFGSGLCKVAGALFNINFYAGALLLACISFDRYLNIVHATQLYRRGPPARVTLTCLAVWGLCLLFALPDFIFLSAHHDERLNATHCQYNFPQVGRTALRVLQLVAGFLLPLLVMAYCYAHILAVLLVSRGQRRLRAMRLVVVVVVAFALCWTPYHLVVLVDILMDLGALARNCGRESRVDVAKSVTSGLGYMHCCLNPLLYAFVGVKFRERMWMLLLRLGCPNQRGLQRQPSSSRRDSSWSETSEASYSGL
For `COc1cc(CN(C2CC(C(=O)O)C2)C(C)c2ccc3c(c2)CCO3)ccc1OCCN1C(=O)CCC1=O` (centres undefined), the IC50 was 58 nM.
`CN1CC(=O)N(CCOc2ccc(CN(C[C@H]3CC[C@H](C(=O)O)CC3)C3CCc4cc(Cl)ccc43)cc2Cl)C1=O` (some centres undefined) showed an IC50 of 1200 nM.
With `Cc1cc(CN(C[C@H]2CC[C@H](C(=O)O)CC2)C(C)c2ccc(Cl)c(Cl)c2)ccc1OCCN1C(=O)CN(C)C1=O` (some centres undefined) the IC50 was 431 nM.
In the case of `COc1cc(CN(C[C@H]2CC[C@H](C(=O)O)CC2)C(C)c2ccc3c(c2)CCO3)ccc1CCCN1C(=O)CCC1=O` (some centres undefined), the IC50 is reported as 81 nM.
